# Reference: patent US20260041744A1, “Methods for Treating Pompe Disease” (Amicus Therapeutics, Inc., priority 2022, published 2026)
# Entries after “also recorded” stand apart in the source; their conditions may differ.
# Assays:
# [1] = system: adults with Pompe disease; experiment: Study ATB200-02: MIP, MEP and other pulmonary measures; type: in vivo, human
# Description: Mean CFBL in % predicted sitting FVC was generally stable (CFBL±3% points) for up to 48 months of follow-up in the ERT-experienced cohorts (FIG. 47A, Table 26B), with improvements (CFBL >3% points) at Months 48 in 66.7% of ERT-experienced and 75% of ERT-naïve patients.
# In the ERT-naïve cohort, mean CFBL in % predicted sitting FVC improved at 3 months and then remained generally stable up to 48 months of follow up (FIG. 47B, Table 26B), except for one patient who experienced a large drop in % predicted sitting FVC at Month 21, which returned to previous levels at the following visit at Month 24. Mean % predicted sitting FVC improvements were more marked in the ERT-naïve cohort compared with the ERT-experienced cohort over 48 months of follow up (FIG. 47B, Table 26B). […] Percent predicted sitting FVC data were supported by similar outcomes in other pulmonary measures including % predicted maximum inspiratory pressure (MIP) and MEP.
# [2] = system: adults with Pompe disease; experiment: Study ATB200-02: plasma/serum creatine kinase (CK); details: for mean reduction from baseline in plasma CK: b512 prints a minus sign
# Description: The change from baseline (CFBL) in 6MWD, % predicted sitting FVC, manual muscle test (MMT) and biomarkers—urine glucose tetrasaccharide (Hex4) and serum creatine kinase (CK)—were assessed at regular intervals.
# [3] = Ambulatory ERT-experienced, 12 months
# [4] = Ambulatory ERT-experienced, 24 months
# [5] = Ambulatory ERT-experienced, 36 months
# [6] = Ambulatory ERT-experienced, 48 months
# [7] = Ambulatory ERT-naïve, 12 months
# [8] = Ambulatory ERT-naïve, 24 months
# [9] = Ambulatory ERT-naïve, 36 months
# [10] = Ambulatory ERT-naïve, 48 months
# [11] = Non-ambulatory ERT-experienced, 12 months
# [12] = Non-ambulatory ERT-experienced, 24 months
# [13] = Non-ambulatory ERT-experienced, 36 months
# [14] = Non-ambulatory ERT-experienced, 48 months
substance,measurement,setting,value
"ATB200/miglustat: two-component therapy: cipaglucosidase alfa (ATB200) administered in conjunction with miglustat (AT2221), a stabilizer of cipaglucosidase alfa",MEP / MIP outcome,"[1]; 12, 24, 36, and 48 months, listed as cipaglucosidase alfa/miglustat",maximum expiratory pressure (MEP) results that also improved numerically from baseline; also recorded: MIP improved numerically in ERT-naïve patients
same,"Percent predicted Sniff Nasal Inspiratory Pressure, CFBL mean",[1]; [3],2.1%
same,"Percent predicted maximum expiratory pressure, CFBL mean",[1]; [3],9.4%
same,"Percent predicted maximum inspiratory pressure, CFBL mean",[1]; [3],3.7%
same,"Percent predicted Sniff Nasal Inspiratory Pressure, CFBL mean",[1]; [4],5.3%
same,"Percent predicted maximum expiratory pressure, CFBL mean",[1]; [4],16.8%
same,"Percent predicted maximum inspiratory pressure, CFBL mean",[1]; [4],4.5%
same,"Percent predicted Sniff Nasal Inspiratory Pressure, CFBL mean",[1]; [5],−2.3%
same,"Percent predicted maximum expiratory pressure, CFBL mean",[1]; [5],13.7%
same,"Percent predicted maximum inspiratory pressure, CFBL mean",[1]; [5],−0.5%
same,"Percent predicted Sniff Nasal Inspiratory Pressure, CFBL mean",[1]; [6],7.3%
same,"Percent predicted maximum expiratory pressure, CFBL mean",[1]; [6],17.9%
same,"Percent predicted maximum inspiratory pressure, CFBL mean",[1]; [6],−3.8%
same,"Percent predicted Sniff Nasal Inspiratory Pressure, CFBL mean",[1]; [7],9.4%
same,"Percent predicted maximum expiratory pressure, CFBL mean",[1]; [7],11.6%
same,"Percent predicted maximum inspiratory pressure, CFBL mean",[1]; [7],8.0%
same,"Percent predicted Sniff Nasal Inspiratory Pressure, CFBL mean",[1]; [8],8.1%
same,"Percent predicted maximum expiratory pressure, CFBL mean",[1]; [8],17.9%
same,"Percent predicted maximum inspiratory pressure, CFBL mean",[1]; [8],18.7%
same,"Percent predicted Sniff Nasal Inspiratory Pressure, CFBL mean",[1]; [9],4.3%
same,"Percent predicted maximum expiratory pressure, CFBL mean",[1]; [9],14.2%
same,"Percent predicted maximum inspiratory pressure, CFBL mean",[1]; [9],12.5%
same,"Percent predicted Sniff Nasal Inspiratory Pressure, CFBL mean",[1]; [10],4.6%
same,"Percent predicted maximum expiratory pressure, CFBL mean",[1]; [10],24.8%
same,"Percent predicted maximum inspiratory pressure, CFBL mean",[1]; [10],16.1%
same,"Percent predicted Sniff Nasal Inspiratory Pressure, CFBL mean",[1]; [11],4.5%
same,"Percent predicted maximum expiratory pressure, CFBL mean",[1]; [11],10.6%
same,"Percent predicted maximum inspiratory pressure, CFBL mean",[1]; [11],1.1%
same,"Percent predicted Sniff Nasal Inspiratory Pressure, CFBL mean",[1]; [12],7.8%
same,"Percent predicted maximum expiratory pressure, CFBL mean",[1]; [12],21.1%
same,"Percent predicted maximum inspiratory pressure, CFBL mean",[1]; [12],3.3%
same,"Percent predicted Sniff Nasal Inspiratory Pressure, CFBL mean",[1]; [13],−0.4%
same,"Percent predicted maximum expiratory pressure, CFBL mean",[1]; [13],11.5%
same,"Percent predicted maximum inspiratory pressure, CFBL mean",[1]; [13],−0.4%
same,"Percent predicted Sniff Nasal Inspiratory Pressure, CFBL mean",[1]; [14],−4.1%
same,"Percent predicted maximum expiratory pressure, CFBL mean",[1]; [14],21.0%
same,"Percent predicted maximum inspiratory pressure, CFBL mean",[1]; [14],3.9%
same,"Serum creatine kinase, % CFBL mean",[2]; [3],−20.5%
same,"Serum creatine kinase, % CFBL mean",[2]; [4],−29.9%
same,"Serum creatine kinase, % CFBL mean",[2]; [5],−30.0%
same,"Serum creatine kinase, % CFBL mean",[2]; [6],−35.3%
same,"Serum creatine kinase, % CFBL mean",[2]; [7],−50.6%
same,"Serum creatine kinase, % CFBL mean",[2]; [8],−46.5%
same,"Serum creatine kinase, % CFBL mean",[2]; [9],−50.7%
same,"Serum creatine kinase, % CFBL mean",[2]; [10],−35.9%
same,mean reduction from baseline in plasma CK,"[2]; Cohort 2 (non-ambulatory ERT-experienced), 12 months, listed as cipaglucosidase alfa plus miglustat",20.8%
same,mean reduction from baseline in plasma CK,"[2]; Cohort 2 (non-ambulatory ERT-experienced), 12 months, listed as cipaglucosidase alfa/miglustat",−20.8%
same,mean reduction from baseline in plasma CK,"[2]; Cohort 2, 24 months, listed as cipaglucosidase alfa plus miglustat",25.3%
same,mean reduction from baseline in plasma CK,"[2]; Cohort 2, 24 months, listed as cipaglucosidase alfa/miglustat",−25.3%
same,mean reduction from baseline in plasma CK,"[2]; Cohort 2, 36 months, listed as cipaglucosidase alfa plus miglustat",27.1%
same,mean reduction from baseline in plasma CK,"[2]; Cohort 2, 36 months, listed as cipaglucosidase alfa/miglustat",−27%
same,mean reduction from baseline in plasma CK,"[2]; Cohort 2, 48 months, listed as cipaglucosidase alfa plus miglustat",23.7%
same,mean reduction from baseline in plasma CK,"[2]; Cohort 2, 48 months, listed as cipaglucosidase alfa/miglustat",−23.7%
same,patients with abnormal baseline CK who had normal CK levels at Month 48,[2]; ERT-experienced (two of six),33.3%
same,patients whose plasma CK decreased numerically from baseline (n/N),"[2]; ERT-experienced, 12 months",13/15
same,patients whose plasma CK decreased numerically from baseline (n/N),"[2]; ERT-experienced, 24 months",14/15
same,patients whose plasma CK decreased numerically from baseline (n/N),"[2]; ERT-experienced, 36 months",9/11
same,patients whose plasma CK decreased numerically from baseline (n/N),"[2]; ERT-experienced, 48 months",8/9
same,CK status at Month 48 of patients with abnormal baseline CK,[2]; ERT-naïve (two of five abnormal at baseline),remained abnormal at Month 48
same,patients whose plasma CK decreased numerically from baseline (n/N),"[2]; ERT-naïve, 12 months",6/6
same,patients whose plasma CK decreased numerically from baseline (n/N),"[2]; ERT-naïve, 24 months",6/6
same,patients whose plasma CK decreased numerically from baseline (n/N),"[2]; ERT-naïve, 36 months",5/5
